Test results: patent US20060030616A1, “Anhydride modified cantharidin analogues useful in the treatment of cancer” (priority 1998, published 2006)
Where two headings read alike, the source gives them in different places.

What was measured:
nine cancer cell lines = assay: MTT cytotoxicity assay, 72 h, ranges over cell line panel; assay type: cell-based
Protocol: (§1) Cells in a subconfluent phase are transferred to 96-well microtitre plates. L1210 cells are plated at a density of 1000 cells/well in 100 μl medium, while all other cell lines are plated at a density of 2000-25000 cells/well. The cells are left for 24 h prior to treatment to ensure exponential growth has been achieved, 24 h after plating (day 0), 100 μl of phosphatase inhibitor is added to each well, control wells received 100 μl of medium only. Drug exposure time is 72 h (day 3). The effect of phosphatase inhibition is tested in triplicate over a concentration range of […]−1×10^−8 M. Growth inhibitory effects are evaluated using the MTT assay and absorbance read at […]. The IC50 is the drug concentration at which cell growth is 50% inhibited based on the difference of optical density on day 0 and day 3 of drug exposure. Cytotoxicity is evaluated using a spectrophotometric assay which determines the percentage of cell growth following exposure of the cells to various concentrations of the phosphatase inhibitors for a period of 72 hours. The subsequent dose response curve is used to calculate IC50 values (the drug concentration at which cell growth is 50% inhibited).
(§2) Anti-cancer screening of the protein phosphatase inhibitors is assessed using the MTT assay. This assay determines cell viability by the ability of mitochondrial dehydrogenase to produce formazan crystals from 3-(4,5-dimethylthiazol-2-yl)-2,5-diphenyltetrazolium bromide. The viable cell number/well is directly proportional to the production of formazan, which following solubilization, can be measured spectrophotometrically (540 nm). This technique is also used by the National Cancer Institute to screen for new anticancer agents.
(§3) As described herein a number of cantharidin analogues have been synthesised and tested for their anticancer activity in nine cancer cell lines using the MTT assay after 72 h exposure. These new analogues are shown in FIG. 2 and have been designated MK-1 through to MK-9.

WiDr cells = assay: MTT cytotoxicity assay, 72 h; assay type: cell-based, human; conditions: p53 mt, read-out: IC50 (mean ± SE) after 72 h continuous exposure
Protocol: as §1, §2, §3

L1210 cells = assay: Checkpoint abrogation after 6 Gy radiation, flow cytometry; assay type: cell-based, murine; conditions: 12 h after drug
Protocol: (§4) The cells are fixed in 70% ethanol and stored at −20° C. until analysis is performed (1-2 weeks). After fixing, the cells are pelleted and incubated in PBS containing propidium iodide ([…]) and RNase A (200 mg/ml) for at least 30 min at room temperature. The samples (2×10^4 events) are analysed using a Becton Dickson FACScan, fluorescence is collected in fluorescence detector 2 (FL2), filter 575/30 nm band pass. Cell cycle distribution is assessed using Cell Quest software (Becton Dickson).
(§5) The ability of the protein phosphatase inhibitors to abrogate the G1 or G2 checkpoint of the cell cycle may be determined by cell cycle analysis using flow cytometry. Briefly, asynchronous cell cultures are harvested 18 h after 6 Gy irradiation and/or 12 h incubation with the protein phosphatase inhibitor. Depending upon the p53 status of the cell line, radiation treatment alone will induce arrest in either G1 and/or G2 phase of the cell cycle.
(§6) If the protein phosphatase inhibitor abrogates the G2 checkpoint then the cells will not arrest in the G2 phase of the cell cycle and the cells will continue through the cell cycle and accumulate in the G1 phase of the cell cycle only. Similarily if the protein phosphatase inhibitors abrogates the G1 checkpoint then the cells will not arrest in the G1 phase of the cell cycle and accumulate in the G2 phase of the cell cycle only. Cell cycle analysis using propidium iodide labelling of DNA has been used extensively in our laboratory to assess the effect of specific anticancer agents that induce S-phase cell cycle arrest and apoptotic cell death (Sakoff, Ackland and Stewart, 1998). Experiments were performed on a Becton Dickinson FACScan and using Cell Quest software.
(§7) The cells were treated with 6 Gy of radiation and then treated with cantharidin 6 h later. The ability to abrogate cell cycle arrest was assessed is 12 h after the addition of the drugs.

HL60 cells = assay: as above; assay type: cell-based, human; conditions: 12 h after drug
Protocol: as §4, §5, §6, §7

HT29 cells = assay: as above; assay type: cell-based, human; conditions: 12 h after drug
Protocol: as §4, §5, §6, §7

HCT116 cells = assay: as above; assay type: cell-based, human; conditions: 12 h after drug
Protocol: as §4, §5, §6, §7

O=C1OC(O)C2C3CCC(O3)C12 (stereo not shown) [MK-4]
IC50 (nine cancer cell lines; colon lines, read-out: IC50 range in human colon cancer cell lines): 14 to 88 µM
IC50 (nine cancer cell lines; leukaemia lines, read-out: IC50 range in leukaemia cells): 393 to 680 µM
IC50 (nine cancer cell lines; ovarian lines, read-out: IC50 range in ovarian cells): 275 to 333 µM
IC50 (WiDr cells): 15 ± 3 µM
Cell Cycle Distribution, G1 (L1210 cells; L1210, 50 μM, 18 h after 6Gy): 21.2 percentage of total
Cell Cycle Distribution, G2 + M (L1210 cells; L1210, 50 μM, 18 h after 6Gy): 50.3 percentage of total
Cell Cycle Distribution, S (L1210 cells; L1210, 50 μM, 18 h after 6Gy): 28.5 percentage of total
Cell Cycle Distribution, sub G1 (L1210 cells; L1210, 50 μM, 18 h after 6Gy): 1.8 percentage of total
Cell Cycle Distribution, G1 (L1210 cells; L1210, 100 μM, 18 h after 6Gy): 22.0 percentage of total
Cell Cycle Distribution, G2 + M (L1210 cells; L1210, 100 μM, 18 h after 6Gy): 49.7 percentage of total
Cell Cycle Distribution, S (L1210 cells; L1210, 100 μM, 18 h after 6Gy): 27.4 percentage of total
Cell Cycle Distribution, sub G1 (L1210 cells; L1210, 100 μM, 18 h after 6Gy): 2.4 percentage of total
Cell Cycle Distribution, G1 (L1210 cells; L1210, 250 μM, 18 h after 6Gy): 21.2 percentage of total
Cell Cycle Distribution, G2 + M (L1210 cells; L1210, 250 μM, 18 h after 6Gy): 52.7 percentage of total
Cell Cycle Distribution, S (L1210 cells; L1210, 250 μM, 18 h after 6Gy): 24.6 percentage of total
Cell Cycle Distribution, sub G1 (L1210 cells; L1210, 250 μM, 18 h after 6Gy): 3.1 percentage of total
Cell Cycle Distribution, G1 (L1210 cells; L1210, 500 μM, 18 h after 6Gy): 18.2 percentage of total
Cell Cycle Distribution, G2 + M (L1210 cells; L1210, 500 μM, 18 h after 6Gy): 61.8 percentage of total
Cell Cycle Distribution, S (L1210 cells; L1210, 500 μM, 18 h after 6Gy): 16.0 percentage of total
Cell Cycle Distribution, sub G1 (L1210 cells; L1210, 500 μM, 18 h after 6Gy): 5.0 percentage of total
Checkpoint remark (L1210 cells; L1210, 500 μM, 18 h after 6Gy): G1 abrogation
Checkpoint abrogation (L1210 cells; L1210, 6 Gy): abrogated G1 arrest
Cell Cycle Distribution, G1 (HL60 cells; HL60, 50 μM, 18 h after 6Gy): 6.2 percentage of total
Cell Cycle Distribution, G2 + M (HL60 cells; HL60, 50 μM, 18 h after 6Gy): 82.3 percentage of total
Cell Cycle Distribution, S (HL60 cells; HL60, 50 μM, 18 h after 6Gy): 2.8 percentage of total
Cell Cycle Distribution, sub G (HL60 cells; HL60, 50 μM, 18 h after 6Gy): 8.9 percentage of total
Cell Cycle Distribution, G1 (HL60 cells; HL60, 100 μM, 18 h after 6Gy): 6.2 percentage of total
Cell Cycle Distribution, G2 + M (HL60 cells; HL60, 100 μM, 18 h after 6Gy): 80.8 percentage of total
Cell Cycle Distribution, S (HL60 cells; HL60, 100 μM, 18 h after 6Gy): 3.4 percentage of total
Cell Cycle Distribution, sub G (HL60 cells; HL60, 100 μM, 18 h after 6Gy): 9.8 percentage of total
Cell Cycle Distribution, G1 (HL60 cells; HL60, 250 μM, 18 h after 6Gy): 5.8 percentage of total
Cell Cycle Distribution, G2 + M (HL60 cells; HL60, 250 μM, 18 h after 6Gy): 82.2 percentage of total
Cell Cycle Distribution, S (HL60 cells; HL60, 250 μM, 18 h after 6Gy): 3.1 percentage of total
Cell Cycle Distribution, sub G (HL60 cells; HL60, 250 μM, 18 h after 6Gy): 9.3 percentage of total
Cell Cycle Distribution, G1 (HL60 cells; HL60, 500 μM, 18 h after 6Gy): 5.2 percentage of total
Cell Cycle Distribution, G2 + M (HL60 cells; HL60, 500 μM, 18 h after 6Gy): 78.2 percentage of total
Cell Cycle Distribution, S (HL60 cells; HL60, 500 μM, 18 h after 6Gy): 5.4 percentage of total
Cell Cycle Distribution, sub G (HL60 cells; HL60, 500 μM, 18 h after 6Gy): 11.6 percentage of total
Checkpoint remark (HL60 cells; HL60, 500 μM, 18 h after 6Gy): Cell Death
Checkpoint abrogation (HL60 cells; HL60, 6 Gy): abrogated G1 arrest
Cell Cycle Distribution, G1 (HT29 cells; HT29, 50 μM, 18 h after 6Gy): 28.9 percentage of total
Cell Cycle Distribution, G2 + M (HT29 cells; HT29, 50 μM, 18 h after 6Gy): 48.4 percentage of total
Cell Cycle Distribution, S (HT29 cells; HT29, 50 μM, 18 h after 6Gy): 16.4 percentage of total
Cell Cycle Distribution, sub G (HT29 cells; HT29, 50 μM, 18 h after 6Gy): 6.8 percentage of total
Cell Cycle Distribution, G1 (HT29 cells; HT29, 100 μM, 18 h after 6Gy): 33.3 percentage of total
Cell Cycle Distribution, G2 + M (HT29 cells; HT29, 100 μM, 18 h after 6Gy): 43.3 percentage of total
Cell Cycle Distribution, S (HT29 cells; HT29, 100 μM, 18 h after 6Gy): 17.2 percentage of total
Cell Cycle Distribution, sub G (HT29 cells; HT29, 100 μM, 18 h after 6Gy): 6.3 percentage of total
Cell Cycle Distribution, G1 (HT29 cells; HT29, 250 μM, 18 h after 6Gy): 35.2 percentage of total
Cell Cycle Distribution, G2 + M (HT29 cells; HT29, 250 μM, 18 h after 6Gy): 36.5 percentage of total
Cell Cycle Distribution, S (HT29 cells; HT29, 250 μM, 18 h after 6Gy): 17.3 percentage of total
Cell Cycle Distribution, sub G (HT29 cells; HT29, 250 μM, 18 h after 6Gy): 10.3 percentage of total
Cell Cycle Distribution, G1 (HT29 cells; HT29, 500 μM, 18 h after 6Gy): 39.4 percentage of total
Cell Cycle Distribution, G2 + M (HT29 cells; HT29, 500 μM, 18 h after 6Gy): 37.7 percentage of total
Cell Cycle Distribution, S (HT29 cells; HT29, 500 μM, 18 h after 6Gy): 19.2 percentage of total
Cell Cycle Distribution, sub G (HT29 cells; HT29, 500 μM, 18 h after 6Gy): 3.9 percentage of total
Checkpoint remark (HT29 cells; HT29, 500 μM, 18 h after 6Gy): G2 abrogation
Checkpoint abrogation (HT29 cells; HT29, 6 Gy): abrogation of the G2 checkpoint
Cell Cycle Distribution, G1 (HCT116 cells; HCT116, 50 μM, 18 h after 6Gy): 26.7 percentage of total
Cell Cycle Distribution, G2 + M (HCT116 cells; HCT116, 50 μM, 18 h after 6Gy): 61.3 percentage of total
Cell Cycle Distribution, S (HCT116 cells; HCT116, 50 μM, 18 h after 6Gy): 5.8 percentage of total
Cell Cycle Distribution, sub G (HCT116 cells; HCT116, 50 μM, 18 h after 6Gy): 6.3 percentage of total
Cell Cycle Distribution, G1 (HCT116 cells; HCT116, 100 μM, 18 h after 6Gy): 18.4 percentage of total
Cell Cycle Distribution, G2 + M (HCT116 cells; HCT116, 100 μM, 18 h after 6Gy): 69.3 percentage of total
Cell Cycle Distribution, S (HCT116 cells; HCT116, 100 μM, 18 h after 6Gy): 9.7 percentage of total
Cell Cycle Distribution, sub G (HCT116 cells; HCT116, 100 μM, 18 h after 6Gy): 3.3 percentage of total
Cell Cycle Distribution, G1 (HCT116 cells; HCT116, 250 μM, 18 h after 6Gy): 16.3 percentage of total
Cell Cycle Distribution, G2 + M (HCT116 cells; HCT116, 250 μM, 18 h after 6Gy): 67.8 percentage of total
Cell Cycle Distribution, S (HCT116 cells; HCT116, 250 μM, 18 h after 6Gy): 8.2 percentage of total
Cell Cycle Distribution, sub G (HCT116 cells; HCT116, 250 μM, 18 h after 6Gy): 8.2 percentage of total
Cell Cycle Distribution, G1 (HCT116 cells; HCT116, 500 μM, 18 h after 6Gy): 13.1 percentage of total
Cell Cycle Distribution, G2 + M (HCT116 cells; HCT116, 500 μM, 18 h after 6Gy): 61.9 percentage of total
Cell Cycle Distribution, S (HCT116 cells; HCT116, 500 μM, 18 h after 6Gy): 10.6 percentage of total
Cell Cycle Distribution, sub G (HCT116 cells; HCT116, 500 μM, 18 h after 6Gy): 14.9 percentage of total
Checkpoint remark (HCT116 cells; HCT116, 500 μM, 18 h after 6Gy): G1 abrogation
Checkpoint abrogation (HCT116 cells; HCT116, 6 Gy): abrogated G1 arrest
